Results on three compounds are retold here after paper PMC10895678 (Journal of Medicinal Chemistry, 2024).

Usually IC50 stands for the concentration needed to halve the response being measured. As usually defined, the fraction unbound is the share of the substance not bound to proteins or other matrix. A high value points to weak binding. What is called microsomal CLint is the rate of metabolic loss divided by the concentration. A high value points to rapid turnover. One may read the kinetic solubility as the concentration staying in solution when a stock, usually in DMSO, is diluted into the medium.

Series [1] in a line: HepG2 mitochondrial dysfunction (Glu/Gal cytotoxicity, MTT). It is filed as cell-based. The following applies: human, HepG2 cells, 24 h, MTT. As for the experimental part:
Compounds were solubilized to 30 mM in DMSO. The BGAz compounds were added to the HepG2 cell model in a 96-well microplate in half log dilutions from 100–0.0003 μM (final DMSO concentration 0.3%) using both glucose (DMEM consisting of 25 mM glucose) and galactose (DMEM consisting of 10 mM galactose) media. The compounds were incubated with the cell line for 24 h at 37 °C in a humidified CO2 tissue culture incubator, followed by cell viability staining with MTT (3-(4,5-dimethylthiazol-2-yl)-2.5-diphenyltetrazolium bromide) conversion to the Formazan product, determined by absorbance measurement. The cell viability IC50 was determined in HepG2 glucose and metabolism-modified HepG2 galactose, and the fold change difference between the Glu/Gal IC50 was determined. All experiments were performed in duplicate with the mitochondrial toxicity controls rotenone and Antimycin A and the cytotoxin control tamoxifen.

Series [2] addresses CYP2C9 (Homo sapiens, UniProt P11712). The series can be described thus: biochemical. It counts as in vitro ADME. The following applies: for IC50: human liver microsomes. As for the experimental part: (§1) Compounds were solubilized to 10 mM in DMSO. The BGAz compounds were incubated at concentrations of 0.003, 0.009, 0.03, 0.08, 0.25, 0.74, 2.2, 6.7, and 20 μM with CYP1A2, CYP2C9, CYP2C19, and CYP2D6 at 37 °C in the presence of the drug-like probe substrate […] the Phase 1 cofactor NADPH (1 mM). The formation of metabolites of the drug-like probe substrates in the absence and presence of the BGAz compound was monitored by LC-MS/MS, and the IC50 value was determined. All assays had two replicates per compound and included a positive control inhibitor.

For series [3], the target named is CYP2D6 (Homo sapiens, UniProt P10635). The series can be described thus: biochemical. It counts as in vitro ADME. Conditions: human liver microsomes. As for the experimental part: as §1
A general note: Liver microsomes are vesicles of endoplasmic reticulum, rich in cytochrome P450 enzymes.

Series [4] has as its target CYP2C19 (Homo sapiens, UniProt P33261). The series can be described thus: biochemical. It counts as in vitro ADME. The following applies: for IC50 / CYP2C19 inhibition (in words): human liver microsomes. As for the experimental part: as §1
Series [5] is described as follows: Mouse PPB, rapid equilibrium dialysis. Conditions: mouse plasma (100%), RED, 37 °C. It is filed as in vitro ADME. As for the experimental part:
Compounds were solubilized (10 mM in DMSO), and rapid equilibrium dialysis (RED) was used to measure the percentage binding to mouse plasma protein of the BGAz compounds at a final concentration of 5 μM. The BGAz compound was incubated in 100% mouse plasma and dialyzed against buffer in a RED device for 4 h at 37 °C in a 5% CO2 incubator, with continuous shaking at 200 rpm. Samples were matrix-matched and analyzed by LC-MS/MS against a six-point standard curve prepared with 100% plasma. All experiments were performed in triplicate.
On the technique in general: In equilibrium dialysis only unbound substance equilibrates across the membrane.

A short description of series [6]: Mouse microsomal clearance. The following applies: 0.5 mg/mL mouse microsomes. It counts as in vitro ADME. As to the method:
Compounds were solubilized (10 mM in DMSO). 1 μM of BGAz compound was incubated with 0.5 mg/mL mouse microsomes in the presence or absence of the Phase 1 cofactor NADPH (1 mM) at 37 °C for 0, 5, 10, 15, and 30 min. The disappearance of the BGAz compound was assessed by LC-MS/MS. All experiments were performed with two replicates per compound and were validated by the inclusion of up to three species-specific control compounds. Data output consists of mean intrinsic clearance (CLint) and half-life (t1/2) measurements.

The nature of series [7]: Kinetic solubility (turbidimetry). It is filed as physicochemical. Conditions: PBS pH 7.4, 1% DMSO, 25 °C.
Series [8] deals with M. bovis BCG. The series can be described thus: microbe, parasite or virus in culture. The following applies: Mycobacterium tuberculosis variant bovis BCG, read-out: BCG MBC. It is filed as cell-based.
Series [9] has as its system M. tuberculosis 1192/015. The series can be described thus: microbe, parasite or virus in culture. It is filed as cell-based. The following applies: Mycobacterium tuberculosis, 1192/015, read-out: M. tb 1192/015 MIC99.
In series [10] the test system is C. glutamicum. The series can be described thus: MIC, resazurin assay, C. glutamicum wild type. It is filed as cell-based, Corynebacterium glutamicum. The following applies: for C. glutamicum MIC: modified Gompertz function; for MIC50 C. glutamicum / MIC99 C. glutamicum: supplementary MIC data file. (In general: The colour change of resazurin is a common sign of viable cells or microbes.)

The subject of series [11] is M. tuberculosis H37Rv. Put plainly: MIC, resazurin microtiter assay (REMA), H37Rv. It is filed as cell-based. The following applies: Mycobacterium tuberculosis, drug-sensitive reference strain, read-out: M. tb H37Rv MIC99. As to the method:
The previously described resazurin microtiter assay (REMA) plate method was used.[73],[74] Compounds were two-fold serially diluted in CAMR Mycobacterium Medium MOD2 (CMM MOD2).[75] Individual wells, in a 96-well plate, were inoculated with 1 × 10^6 CFU mL^–1 bacilli and incubated for 7 days at 37 °C with agitation (200 rpm). Following this, resazurin solution was added to wells (0.02% (w/v) in PBS pH 7.4, supplemented with 5% Tween 80).[76] The 96-well plates were incubated at room temperature for 6 h. The OD570nm of each well was recorded using a Tecan Sunrise plate reader. The minimum inhibitory concentration (MIC99) was calculated using a modified Gompertz function.[77] The optical density measurements for each drug concentration were compared to vehicle control to determine the percentage reduction in bacterial optical density.

The subject of series [12] is M. tb H37Ra::pTYOK. It is filed as cell-based, Mycobacterium tuberculosis. Conditions: autoluminescent strain, >50% RLU inhibition on day 3.
Series [13] relates to M. bovis BCG. The series can be described thus: microbe, parasite or virus in culture. It counts as cell-based, Mycobacterium bovis BCG. Conditions: for MIC99 / MIC50: Mycobacterium tuberculosis variant bovis BCG, BCG; for MIC50: read-out: MIC50 BCG; for increase in activity against M. bovis BCG compared to BGAz-001: fold, from MIC99.
Setting [14] is: galactose medium, read-out: HepG2 Cytotoxicity IC50, Gal.
The mark [15] stands for this setting: glucose medium, read-out: HepG2 Cytotoxicity IC50, Glu.
[16] abbreviates: preincubated 30 min prior to NADPH, read-out: CYP2C9 [pre-inc] IC50.
Setting [17] is: without pre-incubation, read-out: CYP2C9 IC50.
Setting [18] is: preincubated 30 min prior to NADPH, read-out: CYP2D6 [pre-inc] IC50.
The mark [19] stands for this setting: without pre-incubation, read-out: CYP2D6 IC50.
[20] abbreviates: preincubated 30 min prior to NADPH, read-out: CYP2C19 [pre-inc] IC50.
Where [21] appears, read: without pre-incubation, read-out: CYP2C19 IC50.

Values after ≈ are worked out from the molar mass of the structure shown. Like-named read-outs stand apart in the source and are kept apart here. Bounds are passed on as bounds.

CYP2C9, sequence (P11712 whole entry): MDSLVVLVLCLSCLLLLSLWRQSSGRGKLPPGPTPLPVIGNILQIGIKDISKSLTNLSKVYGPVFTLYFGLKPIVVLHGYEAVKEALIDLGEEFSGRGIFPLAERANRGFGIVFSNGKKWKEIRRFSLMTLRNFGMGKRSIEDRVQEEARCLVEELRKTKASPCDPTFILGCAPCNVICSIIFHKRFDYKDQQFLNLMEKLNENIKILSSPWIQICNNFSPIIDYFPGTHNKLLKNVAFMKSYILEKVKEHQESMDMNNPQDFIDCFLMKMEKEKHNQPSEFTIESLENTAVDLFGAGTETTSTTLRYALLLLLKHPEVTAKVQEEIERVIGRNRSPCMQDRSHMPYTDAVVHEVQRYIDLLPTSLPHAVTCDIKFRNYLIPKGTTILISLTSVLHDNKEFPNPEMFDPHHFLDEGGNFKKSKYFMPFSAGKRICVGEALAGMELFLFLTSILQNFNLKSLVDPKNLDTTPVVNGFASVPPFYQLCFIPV
CYP2D6, sequence (P10635 whole entry): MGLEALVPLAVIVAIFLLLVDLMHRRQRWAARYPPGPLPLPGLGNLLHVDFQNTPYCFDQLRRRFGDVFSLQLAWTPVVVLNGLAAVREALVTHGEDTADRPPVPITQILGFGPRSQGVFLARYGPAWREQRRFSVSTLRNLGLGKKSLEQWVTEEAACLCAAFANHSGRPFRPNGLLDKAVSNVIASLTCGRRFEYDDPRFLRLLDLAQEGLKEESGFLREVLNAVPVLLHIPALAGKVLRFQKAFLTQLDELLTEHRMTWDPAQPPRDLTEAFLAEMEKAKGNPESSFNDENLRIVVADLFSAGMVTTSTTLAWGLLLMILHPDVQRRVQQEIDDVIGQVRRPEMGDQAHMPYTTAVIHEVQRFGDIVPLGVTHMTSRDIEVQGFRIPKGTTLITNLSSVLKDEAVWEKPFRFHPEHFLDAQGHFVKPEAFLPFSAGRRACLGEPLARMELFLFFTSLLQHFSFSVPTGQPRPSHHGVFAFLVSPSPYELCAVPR
CYP2C19, sequence (P33261 whole entry): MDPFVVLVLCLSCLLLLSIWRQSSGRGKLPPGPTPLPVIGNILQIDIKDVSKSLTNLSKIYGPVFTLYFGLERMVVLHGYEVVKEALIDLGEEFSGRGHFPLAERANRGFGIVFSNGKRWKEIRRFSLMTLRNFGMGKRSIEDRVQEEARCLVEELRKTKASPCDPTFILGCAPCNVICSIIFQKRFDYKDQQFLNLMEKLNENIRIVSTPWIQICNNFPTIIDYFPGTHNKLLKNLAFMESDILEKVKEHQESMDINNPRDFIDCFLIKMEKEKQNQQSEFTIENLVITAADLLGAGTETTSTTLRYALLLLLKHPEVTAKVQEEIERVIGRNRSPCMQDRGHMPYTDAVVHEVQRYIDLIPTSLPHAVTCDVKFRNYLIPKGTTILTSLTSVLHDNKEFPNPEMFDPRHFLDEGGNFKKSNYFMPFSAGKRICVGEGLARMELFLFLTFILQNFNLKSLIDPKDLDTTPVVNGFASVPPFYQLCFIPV

Consider `Brc1cc(Br)cc(C2CC(CN3CCCC3)N2Cc2ccccc2Br)c1` (centres unmarked) [BGAz-004], for which the IC50 at 24 h in [1] (setting [14]) and in series [1] (setting [15]) was > 100 µM each time. In addition, the IC50 in [2] (setting [16]) was 17.8 µM; in [2] (setting [17]), > 20 µM; in [3] (setting [18]), 1.05 µM; in [3] (setting [19]) it was 1.97 µM; in series [4] (setting [20]), 2.04 µM; in [4] (setting [21]), > 15.1 µM. Further, in series [2] (preincubated for 30 min prior to the addition of NADPH), the “CYP2C9 inhibition (in words)” value is recorded as “minimal CYP2C9 inhibition”. Moreover, in [3], the “CYP2D6 inhibition (in words)” value is reported as “significant inhibition”. In addition, in series [4] (preincubated for 30 min prior to initiation of catalysis), the “CYP2C19 inhibition (in words), preincubated” value is “strong inhibitory activity”. Also, the fraction unbound at 4 h, 5 μM in series [5] was < 0.01. The compound also gave a microsomal CLint at 1 μM in series [6] of 192 µL/min/mg. This compound also had a kinetic solubility at 5 min in [7] of 9 µM (≈ 4.89 µg/mL). Moreover, in series [8], the MBC fell in the range of 12 to 25 µM (≈ 6.52 to 13.6 µg/mL). In addition, the MIC99 in [9] was found to be 15.4 µM (≈ 8.36 µg/mL); in series [11], 3.3 µM (≈ 1.79 µg/mL); in series [13] (read-out: BCG MIC99), 14 µM (≈ 7.6 µg/mL); in series [13] (read-out: MIC99 BCG), 14 µM (≈ 7.6 µg/mL). The same compound registered a C. glutamicum MIC in series [10] of 20 µM. The MIC50 C. glutamicum in [10] turned out to be 12 µM (≈ 6.52 µg/mL). The MIC99 C. glutamicum in series [10] was 12 µM (≈ 6.52 µg/mL). The “M. tb H37Ra::pTY OK MIClux50” value in [12] stood at 7.03 μM. Besides, the MIC50 in series [13] worked out at 15 µM (≈ 8.15 µg/mL). Further, the “increase in activity against M. bovis BCG compared to BGAz-001” value (shortened to “increase in activity”) in series [13] is listed as “approximately three- to four-fold increase”.
On to `FC(F)(F)Oc1ccc(C2CC(CN3CCCC3)N2Cc2ccccc2OC(F)(F)F)cc1` (centres unmarked) [BGAz-002], for which the half-inhibitory concentration (IC50) at 24 h was determined as 65 µM in [1] (setting [14]) and 38 µM in series [1] (setting [15]). Moreover, the IC50 in [2] (setting [16]) is > 20 µM; in series [2] (setting [17]), > 20 µM; in series [3] (setting [18]), 0.08 µM; in series [3] (setting [19]), 0.19 µM; in series [4] (setting [20]) it was > 20 µM; in [4] (setting [21]), > 20 µM. The “CYP2D6 inhibition (in words)” value in series [3] is “significant inhibition”. Further, in [4], the “CYP2C19 inhibition (in words)” value is listed as “negligible inhibition”. The unbound share (fraction unbound) at 4 h, 5 μM in series [5] is < 0.01. The compound also registered a microsomal CLint at 1 μM in series [6] of 166 µL/min/mg. In series [7], this compound displayed a solubility (kinetic) at 5 min of 57 µM (≈ 27 µg/mL). In addition, the MBC in [8] is 12 to 25 µM (≈ 5.69 to 11.9 µg/mL). The MIC99 in [9] worked out at 37.8 µM (≈ 17.9 µg/mL); in series [11], 6.2 µM (≈ 2.94 µg/mL); in [13] (read-out: BCG MIC99) it was 15 µM (≈ 7.12 µg/mL); in [13] (read-out: MIC99 BCG), 15 µM (≈ 7.12 µg/mL). In addition, the C. glutamicum MIC in series [10] was 50 µM. This compound gave an MIC50 C. glutamicum in [10] of 43 µM (≈ 20.4 µg/mL). The compound further came in with an MIC99 C. glutamicum in series [10] of 49 µM (≈ 23.2 µg/mL). In addition, in series [12], the “M. tb H37Ra::pTY OK MIClux50” value turned out to be 9.2 μM. In addition, the MIC50 in series [13] is 14 µM (≈ 6.64 µg/mL). In addition, in series [13], the “increase in activity” value is on record as “approximately three- to four-fold increase”.
Consider `CNCC1CC(c2ccc(OC(F)(F)F)cc2)N1Cc1ccccc1OC(F)(F)F` (centres unmarked) [BGAz-005], for which the IC50 at 24 h in series [1] (setting [14]) came out at 23 µM; in series [1] (setting [15]), 21 µM. Further, the IC50 in series [2] (setting [16]) is > 20 µM; in series [2] (setting [17]) it was > 20 µM; in [3] (setting [18]), 0.01 µM; in [3] (setting [19]) it was 0.06 µM; in series [4] (setting [20]) it was 15.8 µM; in series [4] (setting [21]) it was > 20 µM. Also, the “CYP2D6 inhibition (in words)” value in series [3] is on record as “significant inhibition”. Further, the “CYP2C19 inhibition (in words)” value in [4] was “negligible inhibition”. The fraction unbound at 4 h, 5 μM in [5] was < 0.01. The same compound came in with a microsomal CLint at 1 μM in series [6] of 36 µL/min/mg. Moreover, in [7], the solubility (kinetic) at 5 min is 117 µM (≈ 50.8 µg/mL). Further, the MBC in series [8] lay within 12 to 25 µM (≈ 5.21 to 10.9 µg/mL). Moreover, the MIC99 amounted to 23.2 µM (≈ 10.1 µg/mL) in [9], 7.2 µM (≈ 3.13 µg/mL) in series [11], 21 µM (≈ 9.12 µg/mL) in series [13] (read-out: BCG MIC99) and 21 µM (≈ 9.12 µg/mL) in series [13] (read-out: MIC99 BCG). The compound further displayed a C. glutamicum MIC in series [10] of 12 µM. For the same compound, the “M. tb H37Ra::pTY OK MIClux50” value in series [12] amounted to 4.5 μM. Further, in series [13], the MIC50 amounted to 20 µM (≈ 8.69 µg/mL). In [13], the “increase in activity” value was “approximately three-fold increase”.
